Source: patent US20080299177A1, “Supramolecular Complexes for Use in Acoustically Mediated Intracellular Drug Delivery in vivo” (Biovaluation & Analysis, Inc., priority 2007, published 2008)

What was measured:
[1] = tested on: Mammalian Cells; test: Ultrasound-mediated intracellular calcein delivery and cell viability (flow cytometry); assay type: cell-based; conditions: calcein released from supramolecular complexes, with contrast agent
From the text: (§1) Ultrasound. Ultrasonic energy is produced using an immersible, focused, piezoceramic transducer. In this experimental system, two different matching resistance networks are necessary, allowing production of sound at 1.0 MHz and 3.0 MHz, similar to a method known in the art (Guzmán et al., 2001a, 2001b, 2002, and 2003; and Schlicher et al., 2006). A sinusoidal waveform is produced by, for example, programmable waveform generators (Stanford Research Instruments, Sunnyvale, Calif.) used in conjunction to control pulse length, frequency, and peak-to-peak voltage. The sinusoidal waveform is amplified by an RF broadband power amplifier (Electronic Navigation Industries, Rochester, N.Y.) before passing through a matching network and controlling the response of the transducer. The transducer is housed in a polycarbonate tank (FIG. 12 [601]) 34.5×32×40 cm; containing approximately 34 liters of deionized, distilled, and partially degassed water at room temperature (i.e., 22° C. to 23° C.). A thick acoustic absorber is mounted opposite the transducer to minimize standing-wave formation (not illustrated). A three-axis micropositioning system (10 μm resolution; Velmex, Bloomfield, N.Y.) is mounted on top of the tank to position samples and a hydrophone at desired locations in the tank. A PVDF membrane hydrophone (NTR Systems, Seattle, Wash.) is used to measure spatial-peak-temporal-peak negative pressure and to map and calibrate the acoustic field produced by the transducer versus the peak-to-peak voltage signal provided by a function generator.
Preparation of Nanocarriers (Supramolecular Complexes) and Samples. Before Ultrasound exposure, supramolecular complexes are prepared encapsulating calcein (i.e., 15 μM initial solution) by using a procedure of Examples 1 and 2. Samples are prepared at a cell concentration of 10^6 cells/ml, supramolecular complexes containing calcein, and the ultrasound contrast agent Optison® at concentrations of 0.30% v/v (˜1.6×10^6 bubble/ml), 1.8% v/v (˜1.1×10^7 bubble/ml), and 15.0% v/v (˜9.3×10^7 bubble/ml). Optison® is an ultrasound contrast agent, a suspension of perfluorcarbon gas bubbles stabilized with denatured human albumin that is used to serve primarily as nuclei to promote acoustic cavitation activity in sonicated samples. The product name “Optison®” may hereafter be referred to as “contrast agent” or “ultrasound contrast agent.”
Before every experiment, the desired placement of the supramolecular complex and cell samples in the acoustic field is found using the PVDF membrane hydrophone (FIG. 12 [604]). This location is approximately 1 cm and 0.5 cm out of the ultrasound's focus toward the transducer (601) (for 1.1 MHz and 3.1 MHz, respectively). The acoustic pressure is calibrated versus the peak-to-peak voltage of the signal created by the function generator, using the PVDF membrane hydrophone (604) at the desired location. These out-of-focus locations have a broader acoustic beam than at the focus, approximately 10.4-mm and 2.4-mm wide at half-amplitude (i.e., −6 dB) for 1.1 MHz and 3.1 MHz, respectively. […]
Samples are placed within chambers (605) constructed from a cylindrical bulb of polyethylene with an approximate dimension of 1.4 cm in height and 0.6 cm in diameter. […] A metal rod (606) is immediately inserted into the open end of the sample chamber and then attached to the three-axis positioning system (603), placing the sample in the desired location as determined by the hydrophone (604). […]

[2] = tested on: Henrietta Lacks (HeLa) cells; test: Ultrasound-mediated intracellular calcein delivery and cell viability in HeLa cells (flow cytometry); assay type: cell-based; conditions: HeLa cells compared with AoSMC cells; 1.1 MHz and 3.1 MHz; FIGS. 14A-14D
From the text: as §1, with “A PVDF membrane hydrophone (NTR Systems, Seattle, Wash.) is used to measure spatial-peak-temporal-peak negative pressure and to map and calibrate the acoustic field produced by the transducer versus the peak-to-peak voltage signal provided by a function generator.” left out

Compound: O=C(O)CN(CC(=O)O)Cc1cc2c(cc1O)Oc1cc(O)c(CN(CC(=O)O)CC(=O)O)cc1C21OC(=O)c2ccccc21 [calcein]
- calcein uptake ([1]; mild ultrasound conditions): low levels
- cell death ([1]; mild ultrasound conditions): almost no cell death
- calcein uptake (fraction of cells) ([1]; moderate ultrasound conditions): one-third
- cell death ([1]; moderate ultrasound conditions): some cell death
- cell death ([1]; strong ultrasound conditions): kill almost all insonated cells
- cell death [2]: lower levels of death
- uptake [2]: greater uptake
